The results in this text go back to ChEMBL document CHEMBL1123017, “Synthesis and antifertility activity of zoapatanol analogues” (1985).

The first assay concerns Cavia porcellus. Kind of assay: Compound was evaluated for contragestational activity in guinea pig after intraperitoneal administration; Range is 25-50. The format is functional.
`CC(=O)OC/C=C1\CC[C@@H](OC(C)=O)[C@](C)(CCCC(C)C(CC=C(C)C)OC(C)=O)OC1` (stereo partly specified): the Contragestational activity came to 50 mg/kg.
The same measure, in the same setting: then `CC(C)CCC(=O)C(C)CCC[C@]1(C)OC[C@]2(CC(=O)O)CC[C@H]1O2` (stereo partly specified), with 25 mg/kg.
Still for that read-out and setting: under `CC(=O)O[C@@H]1CC/C(=C\CO)CO[C@@]1(C)CCCC(C)C(=O)CC=C(C)C` (stereo partly specified) stands 25 mg/kg.
The compound `CC(C)=CCC(=O)C(C)CCC[C@]1(C)OC[C@]2(C(=O)O)CC[C@H]1O2` (stereo partly specified) showed a Contragestational activity of 25 mg/kg.

Another assay deals with Cavia porcellus. Kind of assay: Compound was evaluated for contragestational activity in guinea pig after intraperitoneal administration; Range is 10-25. The format is functional.
`CC(C)=CCC(C)(O)C(C)CCC[C@]1(C)OC/C(=C/CO)CC[C@H]1O` (stereo partly specified) had a Contragestational activity of 10 mg/kg.
Same read-out and setting: then `CC(=O)O[C@@H]1CC/C(=C\C=O)CO[C@@]1(C)CCCC(C)C(=O)CC=C(C)C` (stereo partly specified), with 10 mg/kg; and `C#CC(O)(CC=C(C)C)C(C)CCC[C@]1(C)OC[C@]2(CC(=O)O)CC[C@H]1O2` (stereo partly specified), with 10 mg/kg; and `CC(C)CCC(O)C(C)CCC[C@]1(C)OC[C@]2(CCO)CC[C@H]1O2` (stereo partly specified), with 10 mg/kg.
For `CC(C)=CCC(O)C(C)CCC[C@]1(C)OC/C(=C/CO)CC[C@H]1O` (stereo partly specified), the Contragestational activity stood at 10 mg/kg.
`CC(C)=CCC(O)C(C)CCC[C@]1(C)OC[C@]2(C(=O)O)CC[C@H]1O2` (stereo partly specified) came in with a Contragestational activity of 10 mg/kg.

Another assay has as its system Cavia porcellus. Nature of the assay: Compound was evaluated for contragestational activity in guinea pig after intraperitoneal administration; Range is 50-100. The format is functional.
Regarding `CC(=O)OC/C=C1\CC[C@@H](OC(C)=O)[C@](C)(CCCC(C)C(O)CC=C(C)C)OC1` (stereo partly specified), the Contragestational activity turned out to be 50 mg/kg.
For `CC(C)=CCC(=O)C(C)CCC[C@]1(C)OC/C(=C/CO)CC[C@H]1O` (stereo partly specified), the Contragestational activity was 50 mg/kg.
Still for that read-out and setting: then `C/C(=C\C(=O)C(C)CCC[C@]1(C)OC[C@]2(CC(=O)O)CC[C@H]1O2)C(C)C` (stereo partly specified), with 50 mg/kg.
On the same count and under the same terms, under `CC(=O)OC/C=C1\CC[C@@H](O)[C@](C)(CCCC(C)C(=O)CC=C(C)C)OC1` (stereo partly specified) stands 50 mg/kg; under `CC(C)=CCC(O)C(C)CCC[C@]1(C)OC[C@]2(CCO)CC[C@H]1O2` (stereo partly specified), 50 mg/kg; under `CC(=O)OC/C=C1\CC[C@@H](OC(C)=O)[C@](C)(CCCC(C)C(=O)CC=C(C)C)OC1` (stereo partly specified), 50 mg/kg.

A further assay relates to Cavia porcellus. Kind of assay: Contragestational activity in guinea pig after intraperitoneal administration; Not Significant. It is filed as functional.
In turn, `CC(CCC[C@]1(C)OC[C@]2(CC(=O)O)CC[C@H]1O2)C(=O)/C=C/C(C)(C)O` (stereo partly specified) showed a Contragestational activity of over 100 mg/kg.
Still for that read-out and setting: under `CC(C)CCC(=O)C(C)CCC[C@]1(C)OCC(CCO)CC[C@H]1O` (stereo partly specified) stands over 100 mg/kg; under `CC(CCC[C@]1(C)OC[C@]2(CC(=O)O)CC[C@H]1O2)C(=O)O` (stereo partly specified), over 100 mg/kg; under `COC(=O)C[C@@]12CC[C@@H](O1)[C@](C)(CCCC(C)CO)OC2` (stereo partly specified), over 100 mg/kg.
Same read-out and setting: then `CC(CCC[C@]1(C)OC[C@]2(CC(=O)O)CC[C@H]1O2)C(=O)CC(C)C(C)C` (stereo partly specified), with over 100 mg/kg; and `CC(=O)O[C@@H]1CCC(=O)CO[C@@]1(C)CCCC(C)C(=O)O` (stereo partly specified), with over 100 mg/kg; and `C/C(=C\C(O)C(C)CCC[C@]1(C)OC/C(=C/CO)CC[C@H]1O)C(C)C` (stereo partly specified), with over 100 mg/kg.
The same measure, in the same setting: under `COC(=O)/C=C1\CC[C@@H](OC(C)=O)[C@](C)(CCCC(C)C(O)CC=C(C)C)OC1` (stereo partly specified) stands over 100 mg/kg; under `C/C(=C\C(=O)C(C)CCC[C@]1(C)OC[C@]2(C(=O)O)CC[C@H]1O2)C(C)C` (stereo partly specified), over 100 mg/kg; under `CC(CCC[C@]1(C)OC/C(=C/CO)CC[C@H]1O)C(=O)/C=C/C(C)(C)O` (stereo partly specified), over 100 mg/kg.
Consider `C/C(=C\C(C)(O)C(C)CCC[C@]1(C)OC/C(=C/CO)CC[C@H]1O)C(C)C` (stereo partly specified), for which the Contragestational activity was over 100 mg/kg.
Compound `C/C(=C\C(=O)C(C)CCC[C@]1(C)OC/C(=C/CO)CC[C@H]1O)C(C)C` (stereo partly specified) came in with a Contragestational activity of over 100 mg/kg.
The same measure, in the same setting: then `CC(CCC[C@]1(C)OC/C(=C/CO)CC[C@H]1O)C(=O)/C=C/C(C)(C)OO` (stereo partly specified), with over 100 mg/kg; and `CC(=O)OC/C=C1\CCC(=O)[C@](C)(CCCC(C)C(=O)CC=C(C)C)OC1` (stereo partly specified), with over 100 mg/kg.
On the same count and under the same terms, then `C#CC(O)(CC=C(C)C)C(C)CCC[C@]1(C)OC/C(=C/CO)CC[C@H]1O` (stereo partly specified), with over 100 mg/kg.
Same read-out and setting: then `C=C[C@@]12CC[C@@H](O1)[C@](C)(CCCC(C)C(=O)CC=C(C)C)OC2` (stereo partly specified), with over 100 mg/kg.

Another assay concerns Cavia porcellus. Kind of assay: Compound was evaluated for contragestational activity in guinea pig after intraperitoneal administration. The format is functional.
Turning to `CC(C)=CCC(=O)C(C)CCC[C@]1(C)OC[C@]2(CC=O)CC[C@H]1O2` (stereo partly specified), the Contragestational activity is under 10 mg/kg.
The same measure, in the same setting: then `CC(C)=CCC(C)(O)C(C)CCC[C@]1(C)OC[C@]2(CC(=O)O)CC[C@H]1O2` (stereo partly specified), with under 10 mg/kg; and `CC(C)=CCC(O)C(C)CCC[C@]1(C)OC[C@]2(CC=O)CC[C@H]1O2` (stereo partly specified), with under 10 mg/kg.
Still for that read-out and setting: then `CC(C)=CCC(=O)C(C)CCC[C@]1(C)OC[C@]2(CCO)CC[C@H]1O2` (stereo partly specified), with under 10 mg/kg; and `CC(C)=CCC(O)C(C)CCC[C@]1(C)OC[C@]2(CC(=O)O)CC[C@H]1O2` (stereo partly specified), with under 10 mg/kg; and `CC(C)CCC(O)C(C)CCC[C@]1(C)OC[C@]2(CC(=O)O)CC[C@H]1O2` (stereo partly specified), with under 10 mg/kg.
Same read-out and setting: under `COC(=O)C[C@@]12CC[C@@H](O1)[C@](C)(CCCC(C)C(O)CC=C(C)C)OC2` (stereo partly specified) stands under 10 mg/kg; under `CC(C)=CCC(=O)C(C)CCC[C@]1(C)OC[C@]2(CC(=O)O)CC[C@H]1O2` (stereo partly specified), under 10 mg/kg; under `CC(C)CCC(O)C(C)CCC[C@]1(C)OC[C@]2(CC=O)CC[C@H]1O2` (stereo partly specified), under 10 mg/kg.
